Source: ChEMBL document CHEMBL2331414, “N-1, C-3 substituted indoles as 5-LOX inhibitors--in vitro enzyme immunoaasay, mass spectral and molecular docking investigations” (Bioorg Med Chem Lett, 2013)

Assays:
[1] = biological target: T1, Polyunsaturated fatty acid 5-lipoxygenase (Homo sapiens) (UniProt P09917); experiment: Inhibition of 5LOX (unknown origin) using arachidonic acid as substrate at 1 uM after 5 mins by spectrophotometric analysis
T1 sequence (whole entry): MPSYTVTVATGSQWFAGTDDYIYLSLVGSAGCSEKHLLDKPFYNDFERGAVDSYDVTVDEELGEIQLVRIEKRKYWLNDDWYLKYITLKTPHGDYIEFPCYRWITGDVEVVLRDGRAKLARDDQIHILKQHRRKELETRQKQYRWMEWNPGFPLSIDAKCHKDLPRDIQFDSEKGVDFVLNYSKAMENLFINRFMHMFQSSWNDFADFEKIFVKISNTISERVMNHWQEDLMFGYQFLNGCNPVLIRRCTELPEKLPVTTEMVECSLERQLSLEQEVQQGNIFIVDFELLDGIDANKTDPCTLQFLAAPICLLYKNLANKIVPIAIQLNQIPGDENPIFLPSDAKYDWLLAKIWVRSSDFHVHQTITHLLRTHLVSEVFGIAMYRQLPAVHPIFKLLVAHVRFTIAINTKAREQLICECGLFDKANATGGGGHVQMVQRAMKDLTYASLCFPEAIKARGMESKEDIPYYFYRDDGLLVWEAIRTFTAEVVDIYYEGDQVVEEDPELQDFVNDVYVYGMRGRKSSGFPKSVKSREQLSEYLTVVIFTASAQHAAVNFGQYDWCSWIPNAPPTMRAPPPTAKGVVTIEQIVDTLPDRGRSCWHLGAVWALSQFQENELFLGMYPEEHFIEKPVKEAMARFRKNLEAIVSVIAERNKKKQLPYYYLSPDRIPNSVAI

[2] = biological target: T1, Polyunsaturated fatty acid 5-lipoxygenase (Homo sapiens); experiment: Inhibition of 5LOX (unknown origin) using arachidonic acid as substrate at 10 uM after 5 mins by spectrophotometric analysis
[3] = biological target: T1, Polyunsaturated fatty acid 5-lipoxygenase (Homo sapiens); experiment: Inhibition of 5LOX (unknown origin) using arachidonic acid as substrate at 0.1 uM after 5 mins by spectrophotometric analysis
[4] = biological target: T2, Polyunsaturated fatty acid 5-lipoxygenase (Homo sapiens, UniProt P09917); experiment: Inhibition of 5LOX (unknown origin) using arachidonic acid as substrate after 5 mins by spectrophotometric analysis
T2 sequence (P09917 whole entry): T1 sequence (whole entry)

[5] = biological target: T1, Polyunsaturated fatty acid 5-lipoxygenase (Homo sapiens); experiment: Inhibition of 5LOX (unknown origin) using arachidonic acid as substrate at 0.01 uM after 5 mins by spectrophotometric analysis

| SMILES | inhibition [1] [%] | inhibition [2] [%] | inhibition [3] [%] | IC50 [4] [nM] | inhibition [5] [%] |
| --- | --- | --- | --- | --- | --- |
| COc1ccc2c(c1)c(C(=O)C(=O)N1CCOCC1)cn2OS(=O)(=O)c1ccc(C)cc1 | 53.8 | 59.2 | 22 | 1000 | 4.7 |
| Cc1ccc(S(=O)(=O)n2cc(C(=O)C(=O)N3CCCC3)c3ccccc32)cc1 | 63.8 | 95.4 | 27.8 | 600 | 0.9 |

The remaining lines, values ahead:

| inhibition [1] [%] | inhibition [2] [%] | inhibition [3] [%] | IC50 [4] [nM] | inhibition [5] [%] | SMILES |
| --- | --- | --- | --- | --- | --- |
| 40.7 | 59.2 | 21.1 | 5000 | 2.5 | O=C(C(=O)N1CCOCC1)c1cn(C(=O)/C=C/c2ccccc2)c2ccccc12 |
| 54.5 | 68.6 | 25.6 | 1000 | 5.9 | COc1ccc2c(c1)c(C(=O)C(=O)N1CCCC1)cn2C(=O)/C=C/c1ccccc1 |
| 54.2 | 59.6 | 17.4 | 1000 | 6.8 | O=C(C(=O)N1CCCC1)c1cn(C(=O)c2ccccc2)c2ccccc12 |
